Results published in patent publication US11510872B2, “Nanoparticle-lipid composite carriers and uses thereof” (Northwestern University, priority 2017, dated 2022).

System: HepG2 cells
Test: MTS assay for cell viability / cytotoxicity in HepG2 cells
Assay type: cell-based
Details: Homo sapiens; HepG2 cells after 48 h, without thermal activation; read-out: IC50 μg PTX/ml
Description: HepG2 liver cancer cell line and J774 murine macrophage cells (provided by Prof. Colby Shad Thaxton, Department of Urology, Feinberg School of Medicine, Northwestern University) were grown in RPMI-1640 medium containing 10% FBS and penicillin/streptomycin (100 units/mL and 100 μg/mL, respectively). The cells were cultured at 37° C. with 5% CO2 atmosphere in T75 flasks.
The biocompatibility of the MLCCs and cytotoxicity was tested using MTS (3-(4,5-dimethylthiazol-2-yl)-5-(3-carboxymethoxyphenyl)-2-(4-sulfophenyl)-2H-tetrazolium) assay. Briefly, J774 and HepG2 cells were plated at 1×10^5 cells per well in 24-well plate with 70-80% of confluency. […] To compare the effect of drug loaded MLCCs with native drug, Cells were also treated with different concentration of native drug (similar to amount of drug entrapped within the MLCCs as calculated from measurement via HPLC). […] MTS assay was used to quantify the cell viability according to the protocol provided by the manufacture (CellTiter 96 Aqueous One Solution Cell Proliferation Assay; Promega). The optical densities were recorded at 490 nm and 700 nm using BioTek Synergy™ 4 Hybrid Microplate Reader. The background absorbance at 700 nm was subtracted from absorbance at 490 nm. […] The IC50 values were calculated by nonlinear curve fit using dose response-inhibition equation with Graphpad Prism 5.0. […]

CC(=O)O[C@H]1C(=O)[C@@]2(C)[C@H]([C@H](OC(=O)c3ccccc3)[C@]3(O)C[C@H](OC(=O)[C@H](O)[C@@H](NC(=O)c4ccccc4)c4ccccc4)C(C)=C1C3(C)C)[C@]1(OC(C)=O)CO[C@@H]1C[C@@H]2O [PTX, paclitaxel]
IC50: 0.63 µg/mL
